Data published in the NIST ThermoML archive (doi:10.1016/j.jct.2012.01.008).

Assay: xn = mol fraction of the nth substance listed
Settings: Liquid, Vibrating tube method

CCC[N+]1(C)CCCCC1.O=S(=O)([N-]S(=O)(=O)C(F)(F)F)C(F)(F)F + COc1ccccc1
mass density [kg/m3]
Settings | 100 kPa | 10000 kPa | 15000 kPa | 20000 kPa | 25000 kPa | 30000 kPa | 35000 kPa | 40000 kPa | 45000 kPa | 50000 kPa
298.15 K, x2 = 0.1015 | 1393.9 | 1400.6 | 1403.7 | 1406.9 | 1409.8 | 1412.7 | 1415.3 | 1418.1 | 1420.9 | 1423.5
298.15 K, x2 = 0.201 | 1376.9 | 1383.6 | 1386.7 | 1389.9 | 1392.8 | 1395.6 | 1398.2 | 1401 | 1403.8 | 1406.4
298.15 K, x2 = 0.3001 | 1356.9 | 1363.7 | 1366.6 | 1369.8 | 1372.7 | 1375.6 | 1378.4 | 1381.2 | 1383.9 | 1386.5
298.15 K, x2 = 0.4102 | 1330.3 | 1337.1 | 1340.2 | 1343.3 | 1346.2 | 1349.1 | 1351.9 | 1354.7 | 1357.6 | 1360.2
298.15 K, x2 = 0.5003 | 1304.5 | 1311.4 | 1314.4 | 1317.5 | 1320.4 | 1323.3 | 1326.2 | 1329.1 | 1331.9 | 1334.5
298.15 K, x2 = 0.6003 | 1269.5 | 1276.3 | 1279.4 | 1282.6 | 1285.5 | 1288.4 | 1291.3 | 1294 | 1296.7 | 1299.3
298.15 K, x2 = 0.7003 | 1225.7 | 1232.4 | 1235.5 | 1238.6 | 1241.5 | 1244.4 | 1247.3 | 1250.1 | 1252.8 | 1255.3
298.15 K, x2 = 0.8 | 1169.1 | 1175.8 | 1178.9 | 1182 | 1184.8 | 1187.7 | 1190.6 | 1193.3 | 1196.1 | 1198.6
298.15 K, x2 = 0.9 | 1093.1 | 1099.7 | 1102.6 | 1105.7 | 1108.4 | 1111.3 | 1114.1 | 1117 | 1119.8 | 1122.2
318.15 K, x2 = 0.1015 | 1377.3 | 1384.1 | 1387.6 | 1390.6 | 1393.7 | 1396.8 | 1399.9 | 1402.8 | 1405.7 | 1408.4
318.15 K, x2 = 0.201 | 1360 | 1366.8 | 1370.3 | 1373.3 | 1376.4 | 1379.5 | 1382.6 | 1385.4 | 1388.3 | 1391
318.15 K, x2 = 0.3001 | 1339.7 | 1346.6 | 1350 | 1353 | 1356.1 | 1359.2 | 1362.3 | 1365.2 | 1368.1 | 1370.8
318.15 K, x2 = 0.4102 | 1312.9 | 1319.9 | 1323.3 | 1326.4 | 1329.6 | 1332.7 | 1335.9 | 1338.8 | 1341.7 | 1344.5
318.15 K, x2 = 0.5003 | 1286.7 | 1293.8 | 1297.3 | 1300.4 | 1303.6 | 1306.7 | 1309.9 | 1312.8 | 1315.7 | 1318.5
318.15 K, x2 = 0.6003 | 1251.6 | 1258.8 | 1262.2 | 1265.4 | 1268.7 | 1271.8 | 1275 | 1277.9 | 1280.8 | 1283.5
318.15 K, x2 = 0.7003 | 1207.7 | 1215 | 1218.3 | 1221.5 | 1224.8 | 1227.8 | 1231 | 1233.9 | 1236.8 | 1239.5
318.15 K, x2 = 0.8 | 1150.9 | 1158.4 | 1161.7 | 1164.8 | 1168.1 | 1171.1 | 1174.2 | 1177.1 | 1180.1 | 1182.9
318.15 K, x2 = 0.9 | 1074.5 | 1082 | 1085.2 | 1088.4 | 1091.8 | 1094.8 | 1098 | 1100.8 | 1103.7 | 1106.6
348.15 K, x2 = 0.1015 | 1351.4 | 1358.7 | 1362.3 | 1366 | 1369.4 | 1372.6 | 1375.9 | 1378.9 | 1382.1 | 1384.8
348.15 K, x2 = 0.201 | 1333.7 | 1341.1 | 1344.8 | 1348.5 | 1352 | 1355.3 | 1358.4 | 1361.5 | 1364.6 | 1367.5
348.15 K, x2 = 0.3001 | 1313 | 1320.5 | 1324.2 | 1328 | 1331.5 | 1334.8 | 1338.1 | 1341.2 | 1344.4 | 1347.3
348.15 K, x2 = 0.4102 | 1285.7 | 1293.4 | 1297.2 | 1301 | 1304.6 | 1308 | 1311.3 | 1314.5 | 1317.7 | 1320.7
348.15 K, x2 = 0.5003 | 1259.5 | 1267.3 | 1271 | 1274.7 | 1278.4 | 1281.8 | 1285.2 | 1288.4 | 1291.6 | 1294.6
348.15 K, x2 = 0.6003 | 1224.1 | 1232.1 | 1235.9 | 1239.6 | 1243.2 | 1246.6 | 1250.1 | 1253.3 | 1256.5 | 1259.6
348.15 K, x2 = 0.7003 | 1179.9 | 1188.1 | 1191.9 | 1195.6 | 1199.3 | 1202.6 | 1206.1 | 1209.4 | 1212.7 | 1215.8
348.15 K, x2 = 0.8 | 1122.6 | 1130.9 | 1134.8 | 1138.7 | 1142.5 | 1145.9 | 1149.4 | 1152.8 | 1156 | 1159.2
348.15 K, x2 = 0.9 | 1046 | 1054.5 | 1058.3 | 1062.2 | 1066 | 1069.5 | 1073 | 1076.5 | 1079.7 | 1083
